{
  "source": "ChEMBL document CHEMBL4417623",
  "about": "“Methods and compositions for inhibiting rho/mrtf-mediated diseases and conditions” (2015)",
  "key": {"[1]": {"experiment": "Inhibition of Rho/MRTF/SRF mediated signaling (unknown origin) assessed as reduction in MRTF/SRF-regulated gene transcription by SRE-luciferase expression based assay", "design": "species or system Homo sapiens"}, "[2]": {"experiment": "Inhibition of Rho/MRTF/SRF mediated signaling (unknown origin) assessed as reduction in MRTF/SRF-regulated gene transcription by SRE-luciferase expression based assay relative to control", "design": "species or system Homo sapiens"}, "[3]": {"species_on_record": "Mus musculus", "experiment": "Inhibition of Rho/MRTF/SRF mediated signaling in mouse NIH/3T3 cells assessed as inhibition of fibrosis markers by measuring reduction in LPA-induced COL1A2-hn mRNA expression by qRT-PCR assay relative to perfenidone", "format": "cell-based"}, "[4]": {"species_on_record": "Mus musculus", "experiment": "Inhibition of Rho/MRTF/SRF mediated signaling in mouse NIH/3T3 cells assessed as inhibition of fibrosis markers by measuring reduction in LPA-induced ACTA2 mRNA expression by qRT-PCR assay relative to perfenidone", "format": "cell-based"}, "[5]": {"species_on_record": "Homo sapiens", "experiment": "Inhibition of Rho/MRTF/SRF mediated signaling in human dermal fibroblasts assessed as suppression of myofibroblast activation by measuring reduction in TGFbeta-induced alpha-SMA expression incubated for 3 days relative to perfenidone"}, "[6]": {"test_system": "Mus musculus", "experiment": "Suppression of fibrosis in C57bl/6 mouse model of bleomycin-induced dermal fibrosis at 100 mg/kg, bid dosed via oral gavage", "format": "functional, organism-based"}},
  "note": "The source made the active and inactive calls. No cut-off for these calls is given here.",
  "data": [
    {"molecule": "CCOC(=O)CCSc1nnc(-c2ccc(Cl)cc2Cl)o1", "values": [
      {"measurement": "IC50", "setting": "[1]", "result": 2.6, "unit": "nM"}
    ]},
    {"molecule": "CC(ONC(=O)c1cc(C(F)(F)F)cc(C(F)(F)F)c1)C(=O)Nc1ccc(Cl)cc1", "note": "(stereo unspecified)", "values": [
      {"measurement": "IC50", "setting": "[2]", "result": 1000, "unit": "nM"}
    ]},
    {"molecule": "O=C(O)CCSc1nnc(-c2ccc(Cl)cc2)o1", "values": [
      {"measurement": "IC50", "setting": "[1]", "result": 340, "unit": "nM"}
    ]},
    {"molecule": "O=C(Nc1ccc(Cl)cc1)C1CCCN(C(=O)c2cccc(-c3ccco3)c2)C1", "note": "(stereo unspecified)", "values": [
      {"measurement": "fold change (FC)", "setting": "[3]", "result": 100},
      {"measurement": "fold change (FC)", "setting": "[4]", "result": 100},
      {"measurement": "fold change (FC)", "setting": "[5]", "result": 100},
      {"measurement": "Activity", "setting": "[6]", "result": "Active"}
    ]},
    {"molecule": "Cc1ccc(-c2nnc(SCCC(=O)O)o2)c(Cl)c1", "values": [
      {"measurement": "IC50", "setting": "[1]", "result": 1.5, "unit": "nM"}
    ]},
    {"molecule": "COc1ccc(-c2nnc(SCCC(=O)O)o2)c(Cl)c1", "values": [
      {"measurement": "IC50", "setting": "[1]", "result": 2.6, "unit": "nM"}
    ]},
    {"molecule": "Cc1ccc(-c2nnc(SCCC(=O)O)o2)cc1", "values": [
      {"measurement": "IC50", "setting": "[1]", "result": 34, "unit": "nM"}
    ]},
    {"molecule": "COc1ccc(-c2nnc(SCCC(=O)O)o2)cc1", "values": [
      {"measurement": "IC50", "setting": "[1]", "result": 160, "unit": "nM"}
    ]},
    {"molecule": "O=C(O)CCSc1nnc(-c2ccccc2)o1", "values": [
      {"measurement": "IC50", "setting": "[1]", "result": 3500, "unit": "nM"}
    ]},
    {"molecule": "COc1cccc(-c2nnc(SCCC(=O)O)o2)c1", "values": [
      {"measurement": "IC50", "setting": "[1]", "result": 3600, "unit": "nM"}
    ]},
    {"molecule": "O=C(O)CCCSc1nnc(-c2ccc(Cl)cc2Cl)o1", "values": [
      {"measurement": "IC50", "setting": "[1]", "result": 1.8, "unit": "nM"}
    ]},
    {"molecule": "O=C(O)CCSc1nnc(-c2cccc(Cl)c2)o1", "values": [
      {"measurement": "IC50", "setting": "[1]", "result": 1500, "unit": "nM"}
    ]},
    {"molecule": "Cc1cccc(-c2nnc(SCCC(=O)O)o2)c1", "values": [
      {"measurement": "IC50", "setting": "[1]", "result": 180, "unit": "nM"}
    ]}
  ]
}
